Measured values: US10787462B2, “Heterocyclic compound” (TAKEDA PHARMACEUTICAL COMPANY LIMITED, priority 2015, dated 2020)

target: T1, human RIPK1 (1-375) (Homo sapiens, UniProt Q13546); test: Human RIPK1 enzyme inhibitory effect (ADP-Glo Kinase Assay); format: biochemical; conditions: 10 μM test compound; well without enzyme = 100% inhibition; 10 µM
T1 construct: human RIPK1 (1-375) gene; GST; made in house; host or cells: Sf-9 insect cells
T1 sequence (Q13546 1-375): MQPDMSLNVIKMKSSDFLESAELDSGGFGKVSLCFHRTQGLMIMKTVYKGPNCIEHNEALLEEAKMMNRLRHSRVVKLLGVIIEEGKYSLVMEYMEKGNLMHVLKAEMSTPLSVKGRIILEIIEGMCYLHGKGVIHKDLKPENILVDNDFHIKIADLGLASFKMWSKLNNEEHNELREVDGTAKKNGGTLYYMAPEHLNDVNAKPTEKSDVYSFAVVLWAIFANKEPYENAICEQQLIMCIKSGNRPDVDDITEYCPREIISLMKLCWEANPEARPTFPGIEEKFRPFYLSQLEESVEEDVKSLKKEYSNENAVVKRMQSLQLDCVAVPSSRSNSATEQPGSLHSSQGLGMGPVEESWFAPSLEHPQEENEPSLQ
Summary of the method: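 ADP-Glo luminescence read-out of ADP formed over 120 min at room temperature after adding 0.6 mM ATP solution (stock concentration). Compound and Sf-9-expressed, GST-purified RIPK1 (1-375) were first incubated together for 20 min in HEPES pH 7.5 buffer with MgCl2, Tween-20 and DTT.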

Row | human RIPK1 enzyme inhibitory effect at 10 μM (% inhibition) | SMILES
1 | 100% | CN1C(=O)C(N2CCc3c(nn(Cc4c(F)cccc4F)c3Cl)C2=O)CCc2c1cnn2C (stereo not shown) [Example 133, 6-(3-chloro-2-(2,6-difluorobenzyl)-7-oxo-2,4,5,7-tetrahydro-6H-pyrazolo[3,4-c]pyridin-6-yl)-1,4-dimethyl-4,6,7,8-tetrahydropyrazolo[4,3-b]azepin-5(1H)-one]
2 | 93% | CN1C(=O)C(N2CCc3c(nn(Cc4c(F)cccc4F)c3Cl)C2=O)CCc2c1cnn2C (stereo not shown) [Example 134, 6-(3-chloro-2-(2,6-difluorobenzyl)-7-oxo-2,4,5,7-tetrahydro-6H-pyrazolo[3,4-c]pyridin-6-yl)-1,4-dimethyl-4,6,7,8-tetrahydropyrazolo[4,3-b]azepin-5(1H)-one]
3 | 101% | CNC(=O)c1ccc2c(c1)CCC(N1CCc3c(nn(Cc4ccccc4)c3Cl)C1=O)C(=O)N2C (stereo not shown) [Example 136, 3-(2-benzyl-3-chloro-7-oxo-2,4,5,7-tetrahydro-6H-pyrazolo[3,4-c]pyridin-6-yl)-N,1-dimethyl-2-oxo-2,3,4,5-tetrahydro-1H-1-benzazepine-7-carboxamide]
4 | 87% | CNC(=O)c1ccc2c(c1)CCC(N1CCc3c(nn(Cc4ccccc4)c3Cl)C1=O)C(=O)N2C (stereo not shown) [Example 137, 3-(2-benzyl-3-chloro-7-oxo-2,4,5,7-tetrahydro-6H-pyrazolo[3,4-c]pyridin-6-yl)-N,1-dimethyl-2-oxo-2,3,4,5-tetrahydro-1H-1-benzazepine-7-carboxamide]

same assay, conditions: read-out: human RIPK1 enzyme inhibitory effect at 10 μM (% inhibition), 10 μM test compound; well without enzyme = 100% inhibition

Row | SMILES | inhibition at 10 µM
5 | CN1C(=O)[C@@H](N2CCc3cn(Cc4ccccc4F)nc3C2=O)COc2ccc(Br)cc21 [Example 138, (3S)-7-bromo-3-(2-(2-fluorobenzyl)-7-oxo-2,4,5,7-tetrahydro-6H-pyrazolo[3,4-c]pyridin-6-yl)-5-methyl-2,3-dihydro-1,5-benzoxazepin-4(5H)-one] | 101%
6 | CN1C(=O)[C@@H](N2CCc3c(nn(Cc4cnccn4)c3Cl)C2=O)COc2ccc(F)cc21 [Example 143, (3S)-3-(3-chloro-7-oxo-2-(pyrazin-2-ylmethyl)-2,4,5,7-tetrahydro-6H-pyrazolo[3,4-c]pyridin-6-yl)-7-fluoro-5-methyl-2,3-dihydro-1,5-benzoxazepin-4(5H)-one] | 100%
7 | CN1C(=O)[C@@H](N2CCc3c(nn(Cc4ccccc4)c3Cl)C2=O)COc2cc(C(=O)NCCOCCOCCOCCOc3ccc4ccccc4c3)ccc21 [Example 148, (3S)-3-(2-benzyl-3-chloro-7-oxo-2,4,5,7-tetrahydro-6H-pyrazolo[3,4-c]pyridin-6-yl)-5-methyl-N-(2-(2-(2-(2-(2-naphthyloxy)ethoxy)ethoxy)ethoxy)ethyl)-4-oxo-2,3,4,5-tetrahydro-1,5-benzoxazepine-8-carboxamide] | 101%
8 | CN1C(=O)[C@@H](N2CCc3cn(Cc4ccc(Cl)cc4)nc3C2=O)CSc2ccccc21 [Example 150, (3R)-3-(2-(4-chlorobenzyl)-7-oxo-2,4,5,7-tetrahydro-6H-pyrazolo[3,4-c]pyridin-6-yl)-5-methyl-2,3-dihydro-1,5-benzothiazepin-4(5H)-one] | 99%
9 | CN1C[C@H](N2CCc3cn(Cc4ccccc4)nc3C2=O)C(=O)N(C)c2ccccc21 [Example 151, (3S)-3-(2-benzyl-7-oxo-2,4,5,7-tetrahydro-6H-pyrazolo[3,4-c]pyridin-6-yl)-1,5-dimethyl-1,3,4,5-tetrahydro-2H-1,5-benzodiazepin-2-one] | 98%
10 | CN1C(=O)[C@@H](N2CCc3cn(Cc4cccnc4)nc3C2=O)COc2ccccc21 [Example 153, (3S)-5-methyl-3-(7-oxo-2-(pyridin-3-ylmethyl)-2,4,5,7-tetrahydro-6H-pyrazolo[3,4-c]pyridin-6-yl)-2,3-dihydro-1,5-benzoxazepin-4(5H)-one] | 95%
11 | CN1C(=O)[C@@H](N2CCc3cn(CC4(C)COC4)nc3C2=O)COc2ccccc21 [Example 154, (3S)-5-methyl-3-(2-((3-methyloxetan-3-yl)methyl)-7-oxo-2,4,5,7-tetrahydro-6H-pyrazolo[3,4-c]pyridin-6-yl)-2,3-dihydro-1,5-benzoxazepin-4(5H)-one] | 78%
12 | COc1cccc(Cn2cc3c(n2)C(=O)N([C@H]2COc4ccccc4N(C)C2=O)CC3)c1 [Example 155, (3S)-3-(2-(3-methoxybenzyl)-7-oxo-2,4,5,7-tetrahydro-6H-pyrazolo[3,4-c]pyridin-6-yl)-5-methyl-2,3-dihydro-1,5-benzoxazepin-4(5H)-one] | 97%
13 | CN1C(=O)[C@@H](N2CCc3cn(Cc4cccc(F)c4)nc3C2=O)CSc2ccccc21 [Example 156, (3R)-3-(2-(3-fluorobenzyl)-7-oxo-2,4,5,7-tetrahydro-6H-pyrazolo[3,4-c]pyridin-6-yl)-5-methyl-2,3-dihydro-1,5-benzothiazepin-4(5H)-one] | 97%
14 | CN1C(=O)[C@@H](N2CCc3cn(Cc4ccc(F)cc4)nc3C2=O)COc2ccccc21 [Example 157, (3S)-3-(2-(4-fluorobenzyl)-7-oxo-2,4,5,7-tetrahydro-6H-pyrazolo[3,4-c]pyridin-6-yl)-5-methyl-2,3-dihydro-1,5-benzoxazepin-4(5H)-one] | 95%
15 | CN1C(=O)[C@@H](N2CCc3cn(Cc4cccc(F)c4)nc3C2=O)COc2ccccc21 [Example 158, (3S)-3-(2-(3-fluorobenzyl)-7-oxo-2,4,5,7-tetrahydro-6H-pyrazolo[3,4-c]pyridin-6-yl)-5-methyl-2,3-dihydro-1,5-benzoxazepin-4(5H)-one] | 99%

Continued, values first:

Row | inhibition at 10 µM | SMILES
16 | 101% | CNC(=O)c1ccc2c(c1)CCC(N1CCc3c(nn(Cc4ccccc4)c3Cl)C1=O)C(=O)N2C (stereo not shown) [Example 135, 3-(2-benzyl-3-chloro-7-oxo-2,4,5,7-tetrahydro-6H-pyrazolo[3,4-c]pyridin-6-yl)-N,1-dimethyl-2-oxo-2,3,4,5-tetrahydro-1H-1-benzazepine-7-carboxamide]
17 | 100% | CN1C(=O)[C@@H](N2CCc3c(nn(Cc4ccccc4)c3Cl)C2=O)COc2cc(-c3ncco3)ccc21 [Example 139, (3S)-3-(2-benzyl-3-chloro-7-oxo-2,4,5,7-tetrahydro-6H-pyrazolo[3,4-c]pyridin-6-yl)-5-methyl-8-(1,3-oxazol-2-yl)-2,3-dihydro-1,5-benzoxazepin-4(5H)-one]
18 | 102% | CN1C(=O)[C@@H](N2CCc3c(nn(Cc4ccccc4)c3Cl)C2=O)COc2cc(-c3cn[nH]c3)ccc21 [Example 140, (3S)-3-(2-benzyl-3-chloro-7-oxo-2,4,5,7-tetrahydro-6H-pyrazolo[3,4-c]pyridin-6-yl)-5-methyl-8-(1H-pyrazol-4-yl)-2,3-dihydro-1,5-benzoxazepin-4(5H)-one]
19 | 100% | COCc1ccc2c(c1)OC[C@H](N1CCc3c(nn(Cc4ccccc4)c3Cl)C1=O)C(=O)N2C [Example 141, (3S)-3-(2-benzyl-3-chloro-7-oxo-2,4,5,7-tetrahydro-6H-pyrazolo[3,4-c]pyridin-6-yl)-8-(methoxymethyl)-5-methyl-2,3-dihydro-1,5-benzoxazepin-4(5H)-one]
20 | 100% | CN1C(=O)[C@@H](N2CCc3c(nn(Cc4ccccc4)c3Cl)C2=O)COc2cc(N3CCOCC3)ccc21 [Example 142, (3S)-3-(2-benzyl-3-chloro-7-oxo-2,4,5,7-tetrahydro-6H-pyrazolo[3,4-c]pyridin-6-yl)-5-methyl-8-(morpholin-4-yl)-2,3-dihydro-1,5-benzoxazepin-4(5H)-one]
21 | 100% | O=C1Nc2cc(Cl)ccc2OC[C@@H]1N1CCc2c(nn(Cc3ccccc3)c2Cl)C1=O [Example 144, (3S)-3-(2-benzyl-3-chloro-7-oxo-2,4,5,7-tetrahydro-6H-pyrazolo[3,4-c]pyridin-6-yl)-7-chloro-2,3-dihydro-1,5-benzoxazepin-4(5H)-one]
22 | 101% | CN1C(=O)[C@@H](N2CCc3c(nn(Cc4ccccc4)c3Cl)C2=O)COc2ccc(C#N)cc21 [Example 145, (3S)-3-(2-benzyl-3-chloro-7-oxo-2,4,5,7-tetrahydro-6H-pyrazolo[3,4-c]pyridin-6-yl)-5-methyl-4-oxo-2,3,4,5-tetrahydro-1,5-benzoxazepine-7-carbonitrile]
23 | 101% | CN1C(=O)[C@@H](N2CCc3c(nn(Cc4cnccn4)c3Cl)C2=O)COc2cc(Cl)ccc21 [Example 146, (3S)-8-chloro-3-(3-chloro-7-oxo-2-(pyrazin-2-ylmethyl)-2,4,5,7-tetrahydro-6H-pyrazolo[3,4-c]pyridin-6-yl)-5-methyl-2,3-dihydro-1,5-benzoxazepin-4(5H)-one]
24 | 100% | CCNC(=O)c1ccc2c(c1)OC[C@H](N1CCc3c(nn(Cc4ccccc4)c3Cl)C1=O)C(=O)N2C [Example 147, (3S)-3-(2-benzyl-3-chloro-7-oxo-2,4,5,7-tetrahydro-6H-pyrazolo[3,4-c]pyridin-6-yl)-N-ethyl-5-methyl-4-oxo-2,3,4,5-tetrahydro-1,5-benzoxazepine-8-carboxamide]
25 | 99% | CN1C(=O)[C@@H](N2CCc3cn(Cc4ccccc4)nc3C2=O)COc2cc(F)ccc21 [Example 152, (3S)-3-(2-benzyl-7-oxo-2,4,5,7-tetrahydro-6H-pyrazolo[3,4-c]pyridin-6-yl)-8-fluoro-5-methyl-2,3-dihydro-1,5-benzoxazepin-4(5H)-one]
